The subject of series [1] is sRANKL induced osteoclast differentiation. As to the kind of experiment: In vitro anti-osteoclastogenesis activity determination (TRAP staining). The format is cell-based, mouse. The arrangement: key to inhibition of osteoclastogenesis, dose-response (fig. S2a): % inhibition = 100 − (treated−unstimulated)/(untreated−unstimulated)×100. The conditions noted are these: for IC50: read-out: OC IC50 (anti-osteoclastogenesis activity); for inhibition of osteoclastogenesis, dose-response (fig. S2a): three replicate columns. As for the experimental part:
Mouse osteoclasts were cultured according to the previously reported protocols. BMMs were plated in 96-well plates at a density of 6 × 10^3 cells/well with complete medium containing 10 ng/mL M-CSF. The following day, cells were then stimulated with 100 ng/mL sRANKL in the presence or absence of compounds with different concentrations every 2 days until osteoclasts formed. In order to calculate IC50, we set 9 concentrations for each compound and untreated and non-sRANKL unstimulating group as controls, each with triplicated repeated wells. After 5 days, cells were fixed with 4% paraformaldehyde and then applied TRAP-staining to identify osteoclasts by using the TRAP-staining kit. Osteoclasts number (OC No.) in each well was counted and the percentage of inhibition ratio was calculated as follows:1 OCinhibitoryratio%=100−OCNo.treated−OCNo.unstimulating/OCNo.untreated−OCNo.unstimulating×100%
The dosages and their correspondent osteoclastogenesis inhibitory activity curve and IC50 value were conducted by using Nonlinear regression (curve fit) analytic procedure in GraphPad Prism 8. Photographs of individual wells were taken using Leica microscope.

The test system of another series is RAW264.7 cells. As to the kind of experiment: In vitro cytotoxicity assay (MTT). The note with it: RAW264.7, MTT. It is filed as cell-based, mouse. As for the experimental part: MTT assay was used to determine cell viability. RAW264.7 cells in the logarithmic growth phase were cultured in 96-well plates with 6 × 10^3 cells in each well and incubated for 24 h. The surviving cells were then determined by MTT method. […] Cell growth inhibition ratio was calculated as follows: Cellgrowthinhibitionratio%=ODvehicle−ODtreaed/ODvehicle×100%
Cell cytotoxicity CC50 value were conducted by using Nonlinear regression (curve fit) analytic procedure in GraphPad Prism 8.

Where [2] appears, read: BMMs, M-CSF + 100 ng/mL sRANKL, 5 days, TRAP staining.

The results in this text go back to PMC9468151, “Identification of a binding site on soluble RANKL that can be targeted to inhibit soluble RANK-RANKL interactions and treat osteoporosis” (Nature Communications, 2022).

Values joined by “and” are separate entries in the source; they are usually repeats but may differ in a detail not shown here. Equal values may be shown once. “Also recorded” adds a separate entry of the source.

What is called IC50 is the concentration at which inhibition is half-maximal. One may read the CC50 as the concentration giving 50% cytotoxicity.

As to `CCOC(=O)c1sc(NC(=O)C(=NNc2ccccc2O)C(C)=O)nc1C` [S3-06], the half-maximal inhibitory concentration (IC50) in series [1] (setting [2]) was found to be 1.4 µM. For the same compound, the “inhibition of osteoclastogenesis, dose-response (fig. S2a)” value (“inhibition of osteoclastogenesis” for short) in series [1] (conc. 0.0023464 μM) is -2.117 and 4.235 and 7.166; in series [1] (conc. 0.00774313 μM), 2.28 and -2.606 and 3.746; in series [1] (conc. 0.0255523 μM), 1.792 and 3.746 and -0.1629; in series [1] (conc. 0.0843226 μM) it was 4.723 and 7.166 and -1.14; in series [1] (conc. 0.278265 μM) it was 27.1987 and 24.2671 and 26.2215; in series [1] (conc. 0.918274 μM), 39.4137 and 37.4593 and 42.3453. The “inhibition of osteoclastogenesis” value in series [1] (conc. 3.0303 μM) was 68.7296 and 60.9121 and 64.3322; in series [1] (conc. 10 μM), 81.9218 (2×) and 82.899; in series [1] (conc. 33 μM) it was 100. The same compound displayed a CC50 with RAW264.7 cells of 202 µM.

`CC(=O)C(=NNc1ccccc1C(=O)O)C(=O)N1CCc2ccccc2C1` [S3-17]: in series [1] (setting [2]), the IC50 was 6.74 µM. In addition, the “inhibition of osteoclastogenesis” value is 4.167 and -4.167 and 1.19 in series [1] (conc. 0.0023464 μM); 7.7381 and 11.9048 and 8.036 in series [1] (conc. 0.00774313 μM); 13.9881 and 14.2857 and 19.3452 in series [1] (conc. 0.0255523 μM); 22.9167 and 21.7262 and 26.4881 in series [1] (conc. 0.0843226 μM); 30.3571 and 29.4643 and 30.6548 in series [1] (conc. 0.278265 μM); 35.1191 and 33.0357 and 33.6309 in series [1] (conc. 0.918274 μM). Also, the “inhibition of osteoclastogenesis” value is 38.6905 and 40.1786 and 34.5238 in series [1] (conc. 3.0303 μM); 50.8929 and 50 and 48.8095 in series [1] (conc. 10 μM); 63.3929 and 63.6905 and 75.5952 in series [1] (conc. 33 μM). In addition, in the series with RAW264.7 cells, the midpoint of cytotoxicity, the CC50, lay at 82.1 µM.

Turning to `COC(=O)c1cccc(NC(=O)C(=NNc2ccccc2C(=O)O)C(C)=O)n1` [S3-15-2], in series [1] (setting [2]), the IC50 came out at 1.26 µM. Also, the “inhibition of osteoclastogenesis” value was 11.9718 and 6.338 and 4.225 in series [1] (conc. 0.0023464 μM); 7.394 and 8.4507 and 9.155 in series [1] (conc. 0.00774313 μM); 9.507 and 6.338 and 9.155 in series [1] (conc. 0.0255523 μM); 31.6901 and 21.831 and 24.2958 in series [1] (conc. 0.0843226 μM); 33.0986 and 27.4648 and 28.169 in series [1] (conc. 0.278265 μM); 47.1831 and 47.5352 and 44.3662 in series [1] (conc. 0.918274 μM). Moreover, the “inhibition of osteoclastogenesis” value in series [1] (conc. 3.0303 μM) is 59.1549 (2×) and 58.0986; in series [1] (conc. 10 μM), 72.8873 and 71.1268 and 70.4225; in series [1] (conc. 33 μM), 88.3803 and 89.4366 and 88.7324. The 50% cytotoxic concentration (CC50) in the series with RAW264.7 cells is > 100 µM.

With `CCOC(=O)c1sc(NC(=O)C(=NNc2ccc(OC)cc2C(=O)O)C(C)=O)nc1C` [S3-21], in series [1] (setting [2]), the IC50 came to 0.95 µM. Besides, the “inhibition of osteoclastogenesis” value in series [1] (conc. 0.0023464 μM) is 1.224 and -3.182 and 3.06; in series [1] (conc. 0.00774313 μM), 7.099 and 0.1224 and 2.326; in series [1] (conc. 0.0255523 μM), 7.099 and 3.427 and 5.998; in series [1] (conc. 0.0843226 μM) it was 11.5055 and 14.0759 and 15.9119; in series [1] (conc. 0.278265 μM), 35.7405 and 36.4749 and 35.0061; in series [1] (conc. 0.918274 μM), 54.8348 and 53.7332 and 55.5692. The “inhibition of osteoclastogenesis” value in series [1] (conc. 3.0303 μM) is 59.2411 and 62.1787 and 63.2803; in series [1] (conc. 10 μM) it was 74.6634 and 76.8666 and 77.9682; in series [1] (conc. 33 μM) it was 100. Besides, in the series on RAW264.7 cells, the cytotoxic concentration (CC50) is > 100 µM.

Take `CCOC(=O)c1sc(NC(=O)C(=NNc2ccccc2CO)C(C)=O)nc1C` [S3-07]: in series [1] (setting [2]), the “OC IC50 (anti-osteoclastogenesis activity)” value is “inactive; also recorded: lose osetoclastogenesis inhibitory activities” and the IC50 was found to be 2.33 µM. This compound returned a CC50 in the series with RAW264.7 cells of 49.1 µM.

As to `CCOC(=O)c1sc(NC(=O)C(=NNc2c(C(=O)O)cccc2C(=O)O)C(C)=O)nc1C` [S3-19], in series [1] (setting [2]), the IC50 was 9.49 µM. In addition, the “inhibition of osteoclastogenesis” value is 10.2719 and 4.834 (2×) in series [1] (conc. 0.0023464 μM); 5.287 and 4.834 and 5.74 in series [1] (conc. 0.00774313 μM); 0.7553 and 1.208 and 3.021 in series [1] (conc. 0.0255523 μM); 5.74 and 4.381 and -1.0574 in series [1] (conc. 0.0843226 μM); 18.8822 and 16.6163 and 15.2568 in series [1] (conc. 0.278265 μM); 19.7885 and 17.0695 and 17.5227 in series [1] (conc. 0.918274 μM). Further, the “inhibition of osteoclastogenesis” value in series [1] (conc. 3.0303 μM) was 26.1329 and 38.3686 and 35.1964; in series [1] (conc. 10 μM), 44.713 (2×) and 40.6344; in series [1] (conc. 33 μM), 74.1692 and 70.997 and 80.0604. This compound also showed a 50% cytotoxic concentration (CC50) in the series on RAW264.7 cells of 77.9 µM.

Regarding `CC(=O)C(=NNc1ccc(O)cc1C(=O)O)C(=O)Nc1ccccn1` [S3-15-3], the IC50 in series [1] (setting [2]) was 3.59 µM. Besides, the “inhibition of osteoclastogenesis” value is 7.632 and 19.0789 and 12.7632 in series [1] (conc. 0.0023464 μM); 4.079 and 5.263 and 2.105 in series [1] (conc. 0.00774313 μM); 2.105 and -3.421 and -3.026 in series [1] (conc. 0.0255523 μM); 11.579 and 29.3421 and 8.026 in series [1] (conc. 0.0843226 μM); 15.5263 and 26.9737 and 19.0789 in series [1] (conc. 0.278265 μM); 44.7368 and 36.4474 and 37.6316 in series [1] (conc. 0.918274 μM). For the same compound, the “inhibition of osteoclastogenesis” value in series [1] (conc. 3.0303 μM) is 52.6316 and 53.8158 and 45.1316; in series [1] (conc. 10 μM) it was 64.4737 and 56.1842 and 57.3684; in series [1] (conc. 33 μM) it was 73.9474 and 72.3684 and 70.7895. The half-maximal cytotoxic concentration (CC50) in the series on RAW264.7 cells came out at 62.8 µM.

On to `CCOC(=O)c1sc(NC(=O)C(=NNc2c(C)cccc2C(=O)O)C(C)=O)nc1C` [S3-11], for which the “inhibition of osteoclastogenesis” value in series [1] (conc. 0.0023464 μM) is 6.678 and -7.003 and 1.303; in series [1] (conc. 0.00774313 μM), -5.049 and 1.792 and -0.6515; in series [1] (conc. 0.0255523 μM) it was -0.6515 and 3.257 and 0.3257; in series [1] (conc. 0.0843226 μM), 5.212 and -2.117 and 3.746; in series [1] (conc. 0.278265 μM), 16.4495 and 15.9609 and 19.3811; in series [1] (conc. 0.918274 μM), 28.1759 and 21.3355 and 30.1303. Also, the “inhibition of osteoclastogenesis” value is 50.1629 and 34.5277 and 49.6743 in series [1] (conc. 3.0303 μM); 97.557 and 94.1368 and 98.0456 in series [1] (conc. 10 μM); 100 in series [1] (conc. 33 μM). In the series with RAW264.7 cells, this compound had a half-maximal cytotoxic concentration (CC50) of 75.2 µM.

`CC(=O)C(=NNc1ccccc1C(=O)O)C(=O)Nc1nc2ccccc2s1` [S3-16]: in series [1] (setting [2]), the IC50 was determined as 0.73 µM. Besides, the “inhibition of osteoclastogenesis” value in series [1] (conc. 0.00774313 μM) was 3.543 and 4.724 and 0.7874; in series [1] (conc. 0.0255523 μM), 9.449 and 8.661 (2×); in series [1] (conc. 0.0843226 μM) it was 16.9291 and 24.4094 and 12.9921; in series [1] (conc. 0.278265 μM), 30.315 and 29.5276 and 31.1024; in series [1] (conc. 0.918274 μM), 51.1811 and 52.7559 and 54.7244; in series [1] (conc. 3.0303 μM), 73.2284 and 71.6535 and 75.1968. Also, the “inhibition of osteoclastogenesis” value in series [1] (conc. 10 μM) is 82.6772 and 95.2756 and 99.2126; in series [1] (conc. 33 μM) it was 100. In the series on RAW264.7 cells, this compound gave a CC50 of 69.2 µM.

For the compound `CCOC(=O)c1sc(NC(=O)C(=NNc2cc(C)ccc2C(=O)O)C(C)=O)nc1C` [S3-10], the “inhibition of osteoclastogenesis” value in series [1] (conc. 0.0023464 μM) was 3.829 and 3.173 and -0.4376; in series [1] (conc. 0.00774313 μM) it was 4.486 and 2.516 and 3.173; in series [1] (conc. 0.0255523 μM) it was 5.142 and 3.173 and 7.1116; in series [1] (conc. 0.0843226 μM) it was 9.409 and 8.096 and 12.3632; in series [1] (conc. 0.278265 μM) it was 13.6761 and 23.1947 and 19.256; in series [1] (conc. 0.918274 μM) it was 34.0263 and 27.4617 (2×). For the same compound, the “inhibition of osteoclastogenesis” value was 35.3392 and 33.3698 and 37.6368 in series [1] (conc. 3.0303 μM); 87.1991 and 82.6039 and 90.1532 in series [1] (conc. 10 μM); 100 in series [1] (conc. 33 μM). This compound gave a cytotoxic concentration (CC50) with RAW264.7 cells of 41.1 µM.
